Measured values reported in ChEMBL document CHEMBL5032522, “N-2-(phenylamino) benzamide derivatives as novel anti-glioblastoma agents: Synthesis and biological evaluation” (Eur J Med Chem, 2021).
Calls of active or inactive are those of the source. No cut-off for these calls is given here.

Experiments:
U-87 MG [1] = assay: Antiproliferative activity against human U-87 MG cells assessed as inhibition of cell growth measured after 72 hrs by CCK-8 assay; assay type: functional, cell-based, U-87MG ATCC
U-251 [2] = assay: Antiproliferative activity against human U-251 cells assessed as inhibition of cell growth measured after 72 hrs by CCK-8 assay; assay type: functional, cell-based; conditions: U-251, 72 h
C6 = assay: Antiproliferative activity against rat C6 cells assessed as inhibition of cell growth measured after 72 hrs by CCK-8 assay; assay type: functional, cell-based; conditions: C6, 72 h
[3] = target: T1, Prostaglandin G/H synthase 2 (Homo sapiens, UniProt P35354); assay: Inhibition of human recombinant COX-2 using arachidonic acid as substrate preincubated 10 mins followed by substrate addition and measured after 2 mins by ELISA
T1 sequence (P35354 whole entry): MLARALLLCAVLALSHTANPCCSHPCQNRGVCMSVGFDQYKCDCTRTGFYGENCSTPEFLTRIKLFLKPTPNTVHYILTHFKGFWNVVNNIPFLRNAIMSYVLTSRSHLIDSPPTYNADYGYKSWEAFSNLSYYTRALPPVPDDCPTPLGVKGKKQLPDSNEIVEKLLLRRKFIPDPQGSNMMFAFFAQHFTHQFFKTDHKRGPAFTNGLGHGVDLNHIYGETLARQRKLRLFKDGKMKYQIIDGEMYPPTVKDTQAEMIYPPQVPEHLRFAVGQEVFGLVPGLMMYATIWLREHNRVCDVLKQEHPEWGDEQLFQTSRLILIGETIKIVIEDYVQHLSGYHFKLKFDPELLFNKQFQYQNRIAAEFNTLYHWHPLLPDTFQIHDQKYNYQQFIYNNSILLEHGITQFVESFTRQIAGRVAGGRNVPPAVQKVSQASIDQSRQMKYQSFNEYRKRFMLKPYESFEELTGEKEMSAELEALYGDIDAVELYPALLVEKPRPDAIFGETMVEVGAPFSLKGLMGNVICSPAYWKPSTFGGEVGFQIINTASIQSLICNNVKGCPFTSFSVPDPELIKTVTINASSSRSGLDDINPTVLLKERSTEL

DNA topoisomerase 1 = target: T2, DNA topoisomerase 1 (Homo sapiens, UniProt P11387); assay: Inhibition of human topoisomerase I using DNA pBR322 as substrate assessed as DNA relaxation incubated for 45 mins by ethidium bromide staining based agarose gel electrophoresis
T2 sequence (P11387 whole entry): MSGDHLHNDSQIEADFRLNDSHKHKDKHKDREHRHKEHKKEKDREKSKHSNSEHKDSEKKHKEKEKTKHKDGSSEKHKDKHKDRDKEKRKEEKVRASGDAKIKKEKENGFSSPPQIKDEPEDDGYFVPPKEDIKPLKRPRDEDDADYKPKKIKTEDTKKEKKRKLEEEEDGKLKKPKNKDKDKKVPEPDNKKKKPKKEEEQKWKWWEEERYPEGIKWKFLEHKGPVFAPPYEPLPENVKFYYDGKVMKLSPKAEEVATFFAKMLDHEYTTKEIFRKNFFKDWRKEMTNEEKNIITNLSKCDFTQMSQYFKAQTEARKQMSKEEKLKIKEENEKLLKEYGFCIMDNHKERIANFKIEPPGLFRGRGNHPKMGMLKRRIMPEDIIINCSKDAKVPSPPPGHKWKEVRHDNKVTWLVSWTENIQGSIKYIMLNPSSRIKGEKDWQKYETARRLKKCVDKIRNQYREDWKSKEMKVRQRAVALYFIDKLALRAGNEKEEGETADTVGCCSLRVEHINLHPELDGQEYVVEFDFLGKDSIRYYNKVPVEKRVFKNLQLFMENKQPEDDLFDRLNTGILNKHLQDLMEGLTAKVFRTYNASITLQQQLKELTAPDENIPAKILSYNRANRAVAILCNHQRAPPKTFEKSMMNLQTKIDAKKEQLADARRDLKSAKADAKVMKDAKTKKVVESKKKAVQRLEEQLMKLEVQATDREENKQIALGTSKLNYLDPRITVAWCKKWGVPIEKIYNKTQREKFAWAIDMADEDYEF

[4] = target: T3, DNA topoisomerase 1 (Homo sapiens) (UniProt P11387); assay: Inhibition of human topoisomerase I using DNA pBR322 as substrate assessed as DNA intercalation at 100 uM incubated for 30 mins by ethidium bromide staining based agarose gel electrophoresis method
T3 sequence (whole entry): T2 sequence (P11387 whole entry)

[5] = target: T4, Prostaglandin G/H synthase 2 (Rattus norvegicus) (UniProt P35355); assay: In vivo inhibition of COX2 in ip dosed orthotopic Sprague-Dawley rat model inoculated with C6 cells assessed as reduction in PGE2 production by ELISA; assay type: functional, organism-based
T4 sequence (whole entry): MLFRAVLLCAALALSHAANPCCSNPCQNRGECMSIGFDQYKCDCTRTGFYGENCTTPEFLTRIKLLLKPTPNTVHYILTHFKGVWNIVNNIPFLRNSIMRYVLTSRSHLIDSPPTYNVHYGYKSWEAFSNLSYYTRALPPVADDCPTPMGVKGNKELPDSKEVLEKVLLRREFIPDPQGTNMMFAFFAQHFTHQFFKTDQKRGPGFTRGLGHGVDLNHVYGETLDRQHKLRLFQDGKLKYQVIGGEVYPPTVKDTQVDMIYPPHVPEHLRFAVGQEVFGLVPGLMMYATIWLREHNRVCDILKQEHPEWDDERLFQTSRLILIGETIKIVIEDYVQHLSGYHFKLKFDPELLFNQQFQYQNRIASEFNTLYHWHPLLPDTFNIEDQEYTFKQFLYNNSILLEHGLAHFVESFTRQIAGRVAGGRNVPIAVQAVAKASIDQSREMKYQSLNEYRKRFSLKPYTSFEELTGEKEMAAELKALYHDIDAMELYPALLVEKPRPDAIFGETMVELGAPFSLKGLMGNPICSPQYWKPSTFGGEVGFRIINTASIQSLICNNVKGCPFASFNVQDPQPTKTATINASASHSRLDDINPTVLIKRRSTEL

[6] = Toxicity in Sprague-Dawley rat inoculated with C6 cells assessed as reduction in body weight at 50 mg/kg, ip bid administered for 14 days; assay type: organism-based; conditions: in vivo, 336 h, time 14 day
U-251 [7] = assay: Inhibition of cell invasion in human U-251 cells incubated for 24 hrs by crystal violet staining based light microscopic analysis; assay type: functional
U-87 MG [8] = assay: Inhibition of cell invasion in human U-87 MG cells incubated for 24 hrs by crystal violet staining based light microscopic analysis; assay type: functional; conditions: U-87MG ATCC
U-87 MG [9] = assay: Inhibition of cell migration in human U-87 MG cells incubated for 24 hrs by crystal violet staining based light microscopic analysis; assay type: functional; conditions: U-87MG ATCC
U-251 [10] = assay: Inhibition of cell migration in human U-251 cells incubated for 24 hrs by crystal violet staining based light microscopic analysis; assay type: functional

SMILES	IC50 (U-87 MG [1])	IC50 (U-251 [2])	IC50 [3]	IC50 (DNA topoisomerase 1)	inhibition [4]	inhibition [5]	IC50 (C6)	Activity [6]	inhibition (U-251 [7])	inhibition (U-87 MG [8])	inhibition (U-87 MG [9])	inhibition (U-251 [10])
COc1ccc(NC(=O)c2ccccc2Nc2cccc(Cl)c2)cc1	> 200 µM	165 µM	> 150 µM	85.7 µM	–	–	> 200 µM	–	–	–	–	–
COc1cc(NS(C)(=O)=O)ccc1Nc1c2ccccc2nc2ccccc12	–	–	–	–	Active	–	–	–	–	–	–	–
Cn1nnc2c(C(N)=O)ncn2c1=O [TEMOZOLOMIDE]	–	–	–	–	–	inactive	–	Toxic	–	–	–	–
CSc1ccc(NC(=O)c2ccccc2Nc2cccc(C(F)(F)F)c2)cc1	> 200 µM	92.4 µM	> 150 µM	> 125 µM	–	–	> 200 µM	–	–	–	–	–
COc1ccc(NC(=O)c2cccnc2Nc2cccc(C(F)(F)F)c2)cc1	> 200 µM	> 200 µM	> 150 µM	108 µM	–	–	> 200 µM	–	–	–	–	–
COc1ccc(NC(=O)c2ccccc2Nc2cccc(Cl)c2C)c(OC)c1	> 200 µM	> 200 µM	115 µM	70.9 µM	–	–	> 200 µM	–	–	–	–	–
c1ccc(-c2cc(-c3ccccc3)c3ncccc3n2)cc1	> 200 µM	> 200 µM	> 150 µM	> 125 µM	inactive	–	103 µM	–	Dose-Dependent Effect	Dose-Dependent Effect	Dose-Dependent Effect	Dose-Dependent Effect
COc1ccc(CNC(=O)c2ccccc2Nc2ccccc2)cc1	> 200 µM	> 200 µM	17.4 µM	> 125 µM	–	–	> 200 µM	–	–	–	–	–
COc1ccc(NC(=O)c2ccccc2Nc2ccccc2)cc1	> 200 µM	184 µM	> 150 µM	> 125 µM	–	–	> 200 µM	–	–	–	–	–
COc1ccc(NC(=O)c2ccccc2NCc2ccccc2)cc1	> 200 µM	> 200 µM	> 150 µM	> 125 µM	–	–	> 200 µM	–	–	–	–	–

Continued, in another order:

IC50 (U-87 MG [1])	IC50 (U-251 [2])	IC50 [3]	IC50 (DNA topoisomerase 1)	inhibition [4]	inhibition [5]	SMILES	IC50 (C6)	Activity [6]	inhibition (U-251 [7])	inhibition (U-87 MG [8])	inhibition (U-87 MG [9])	inhibition (U-251 [10])
> 200 µM	> 200 µM	> 150 µM	> 125 µM	–	–	COc1ccc(CCCNC(=O)c2ccccc2Nc2ccccc2)cc1	> 200 µM	–	–	–	–	–
187 µM	> 200 µM	> 150 µM	61.2 µM	–	–	COc1ccc(NC(=O)c2cccnc2Nc2cccc(Cl)c2C)cc1	> 200 µM	–	–	–	–	–
26 µM	12.9 µM	105 µM	105 µM	–	–	O=C(Nc1ccc2c(c1)OCO2)c1ccccc1Nc1cccc(C(F)(F)F)c1	15.6 µM	–	–	–	–	–
52.1 µM	50.7 µM	> 150 µM	> 125 µM	–	–	COc1cc(NC(=O)c2ccccc2Nc2cccc(C(F)(F)F)c2)cc(OC)c1OC	75.2 µM	–	–	–	–	–
> 200 µM	> 200 µM	> 150 µM	107 µM	–	–	COc1ccc(CCNC(=O)c2ccccc2Nc2ccccc2)cc1	130 µM	–	–	–	–	–
144 µM	> 200 µM	48.1 µM	85.6 µM	–	–	COc1ccc(NC(=O)c2ccccc2Nc2cccc(C)c2C)cc1OC	169 µM	–	–	–	–	–
72.4 µM	86.2 µM	> 150 µM	> 125 µM	–	–	COc1ccc(NC(=O)c2ccccc2Nc2cccc(C(F)(F)F)c2)cc1OC	36.5 µM	–	–	–	–	–
54.5 µM	178 µM	117 µM	50.9 µM	–	–	COc1cc(NC(=O)c2ccccc2Nc2cccc(Cl)c2C)cc(OC)c1OC	> 200 µM	–	–	–	–	–
142 µM	> 200 µM	> 150 µM	> 125 µM	–	–	COc1ccc(NC(=O)c2ccccc2Nc2cccc(C(F)(F)F)c2)cc1	99.1 µM	–	–	–	–	–
99.8 µM	> 200 µM	92.6 µM	> 125 µM	–	–	COc1ccc(NC(=O)c2ccccc2Nc2cccc(Cl)c2C)cc1OC	44 µM	–	–	–	–	–
> 100 µM	> 100 µM	–	–	–	–	Cc1c(Cl)cccc1Nc1ccccc1C(=O)O [TOLFENAMIC ACID]	> 100 µM	–	–	–	–	–
0.06 µM	0.37 µM	–	–	–	–	CC[C@@]1(O)C(=O)OCc2c1cc1n(c2=O)Cc2cc3c(CN(C)C)c(O)ccc3nc2-1 [TOPOTECAN]	5.8 µM	–	–	–	–	–
73.5 µM	138 µM	> 150 µM	> 125 µM	–	–	COc1ccc(NC(=O)c2ccccc2Nc2cccc(C)c2C)cc1	> 200 µM	–	–	–	–	–
